Laboratory results reported in patent US7781565B2 (priority 2006, dated 2010).
Entries after “also recorded” stand apart in the source; their conditions may differ.

System: NCI-60 cell lines
Format: cell-based, human

Substance	Cell Line with which the peptide (and its tripeptide motif) is associated	Cell Line (NCI-60 cell line the peptide is associated with)	Cell Line (NCI-60 cell line the peptide and its motif are associated with)	Cell Line the peptide is associated with (peptide recovered from phage library selection on this NCI-60 cell line)
FDARGGL	CCRF-CEM Leukemia			
FDRGVEA	K-562-Leukemia			
FVGSRGV		LOX-IMVI Melanoma		
FGRLLSP			UACC62 Melanoma	
HRVSESV			OVCAR-5 Ovarian	
DTPSAVS		SF-268 CNS		
AGLLSDV				NCI/ADR-RES Breast
GNGGARG			M14 Melanoma	
GSGRGVA	Hop-92-Lung			
ERVSAAV			OVCAR-3 Ovarian	
LRSWLLF		HT-29 Colon		
GVRYLRT		HCT-116 Colon		
TSLLSFR	CCRF-CEM Leukemia			
GGSVRHV	RPMI-8226-Leukemia			
GGASLTQ		SF-295 CNS		
LSFSRGS	HL-60-Leukemia			
AGRFGAR			OVCAR-8 Ovarian	
DVSGRVP	HL-60-Leukemia			
GGAGRGA			OVCAR-4 Ovarian	
LLSASLV	K-562-Leukemia			
GVRSITL				ACHN Renal
HGRLAFG			SK-MEL-28 Melanoma	
GVSALSL		HT-29 Colon		
PWGAGVR				BT-549 Breast

Substance	Cell Line with which the peptide (and its tripeptide motif) is associated	Cell Line (NCI-60 cell line the peptide is associated with)	Cell Line (NCI-60 cell line the peptide and its motif are associated with)	Cell Line the peptide is associated with (peptide recovered from phage library selection on this NCI-60 cell line)
RFYHLRS	A549-Lung			
RRSSKQA	A549-Lung			
GDCGLVG			PC3 Prostate	
SGVGSSL	EKVX-Lung			
GSGHSFA		KM-12C Colon		
PRGMARG				BT-549 Breast
RKGSGTA				BT-549 Breast
DGSVLVE	Molt-4-Leukemia			
NSKPLVS				T-47D Breast
GLGGGGS		SF-268 CNS		
AGRHLDA				HS 578 T Breast
GAGSISD	RPMI-8226-Leukemia			
ARGSLRV		SNB-19 CNS; also recorded: SF-539 CNS		
TWGRLGL				ACHN Renal
STSLGAG	H322-Lung			
GLGGWVA	H226-Lung			
TWIGRVS		LOX-IMVI Melanoma		
SHTAGGG			PC3 Prostate	
GRVTVAV	A549-Lung			
ARRGVLG		COLO-205-Colon		
AVYVGRL				NCI/ADR-RES Breast
VTRIRVS			UACC 257 Melanoma	
SRASDVT		SW620-Colon		
DTLRSQW		HCT-15 Colon		

Substance	Cell Line with which the peptide (and its tripeptide motif) is associated	Cell Line (NCI-60 cell line the peptide is associated with)	Cell Line (NCI-60 cell line the peptide and its motif are associated with)	Cell Line the peptide is associated with (peptide recovered from phage library selection on this NCI-60 cell line)
GGSGELG	H23-Lung			
MGMSGPS	CCRF-CEM Leukemia			
IGVRGAV		MALME-3M Melanoma		
VDLRSAF				ACHN Renal
GFGRLLW				A498 Renal
LGTAVSS		SF-268 CNS		
QMQGRAV	H226-Lung			
PGAVPGA		HT-29 Colon		
LWLRSRE			UACC 257 Melanoma	
LFAVAAV	Hop-62-Lung			
ADFFGLV	RPMI-8226-Leukemia			
LLRSHGV		SF-295 CNS		
PLRVLKR		SF-295 CNS		
VRLSGRA		SNB-19 CNS; also recorded: SF-539 CNS		
LRVPGGP		KM-12C Colon		
RRLSYFH		HT-29 Colon		
RRSGLGD		HCC-2998-Colon		
LLSLDPG			SK-MEL-2 Melanoma	
RVRSSLA				HS 578 T Breast
VRVGRLS			UACC62 Melanoma	
SAGGWCA		LOX-IMVI Melanoma		
ALVSSHV			SK-MEL-2 Melanoma	
GLRKAGF	SR Leukemia			
WGATAGG	Hop-62-Lung			

Substance	Cell Line with which the peptide (and its tripeptide motif) is associated	Cell Line (NCI-60 cell line the peptide is associated with)	Cell Line (NCI-60 cell line the peptide and its motif are associated with)	Cell Line the peptide is associated with (peptide recovered from phage library selection on this NCI-60 cell line)
RAVGYNA		MALME-3M Melanoma		
EGLVVFE		SNB-19 CNS; also recorded: SF-539 CNS		
TTLLSRQ			OVCAR-5 Ovarian	
SIGPSTN	H460-Lung			
NYGSSFH	Hop-62-Lung			
GVRTAGP	A549-Lung			
GGSLKWV			SK-MEL-2 Melanoma	
LLLLSGS				RXF393 Renal
AGDRGVA			DU-145 Prostate	
TRGVIGG				T-47D Breast
GAVSVLA		SF-295 CNS		
GPGGSKR				SN12C Renal
FGGSMAP			SK-MEL-2 Melanoma	
AATLLSF	K-562-Leukemia			
WGRLEST				BT-549 Breast
VGLGHWP	Hop-62-Lung			
TIPAGGG				MDA-MB-231 Breast
AGRTGVG	SR Leukemia			
SDLGLRR			DU-145 Prostate	
LYGGVRY	A549-Lung			
HRLRSMS			UACC62 Melanoma	
LCDAGPS		HCT-116 Colon		
GLLSLXL	CCRF-CEM Leukemia			
CHARGVT	Molt-4-Leukemia			
